The term inhibition denotes the drop in the measured response relative to a control, in per cent.

This passage reports inhibition results from ChEMBL document CHEMBL4118098, “Discovery of DS28120313 as a potent orally active hepcidin production inhibitor: Design and optimization of novel 4,6-disubstituted indazole derivatives” (Bioorg Med Chem Lett, 2017).

Molecules are shown by their SMILES.

Assay [1] addresses Cyclin-dependent kinase 3 (Homo sapiens) (UniProt Q00526). The assay is described as follows: Inhibition of CDK3 (unknown origin) at 0.19 uM relative to control.
Assay [2] has as its system Receptor-type tyrosine-protein kinase FLT3 (Homo sapiens), P36888 [D835Y]. The assay is described as follows: Inhibition of Flt3 D835Y mutant (unknown origin) at 0.19 uM relative to control.
Assay [3] addresses Vascular endothelial growth factor receptor 2 (Homo sapiens) (UniProt P35968). Briefly: Inhibition of KDR (unknown origin) at 0.19 uM relative to control.
For assay [4], the target named is Interleukin-1 receptor-associated kinase 4 (Homo sapiens) (UniProt Q9NWZ3). The assay is described as follows: Inhibition of IRAK4 (unknown origin) at 0.19 uM relative to control.
Assay [5] addresses Calcium/calmodulin-dependent protein kinase type 1 (Homo sapiens) (UniProt Q14012). Briefly: Inhibition of CaMK1a (unknown origin) at 0.19 uM relative to control.
The target in assay [6] is Tyrosine-protein kinase Fes/Fps (Homo sapiens) (UniProt P07332). The assay is described as follows: Inhibition of FES (unknown origin) at 0.19 uM relative to control.
Sequence of Tyrosine-protein kinase Fes/Fps (Homo sapiens) (P07332 whole entry): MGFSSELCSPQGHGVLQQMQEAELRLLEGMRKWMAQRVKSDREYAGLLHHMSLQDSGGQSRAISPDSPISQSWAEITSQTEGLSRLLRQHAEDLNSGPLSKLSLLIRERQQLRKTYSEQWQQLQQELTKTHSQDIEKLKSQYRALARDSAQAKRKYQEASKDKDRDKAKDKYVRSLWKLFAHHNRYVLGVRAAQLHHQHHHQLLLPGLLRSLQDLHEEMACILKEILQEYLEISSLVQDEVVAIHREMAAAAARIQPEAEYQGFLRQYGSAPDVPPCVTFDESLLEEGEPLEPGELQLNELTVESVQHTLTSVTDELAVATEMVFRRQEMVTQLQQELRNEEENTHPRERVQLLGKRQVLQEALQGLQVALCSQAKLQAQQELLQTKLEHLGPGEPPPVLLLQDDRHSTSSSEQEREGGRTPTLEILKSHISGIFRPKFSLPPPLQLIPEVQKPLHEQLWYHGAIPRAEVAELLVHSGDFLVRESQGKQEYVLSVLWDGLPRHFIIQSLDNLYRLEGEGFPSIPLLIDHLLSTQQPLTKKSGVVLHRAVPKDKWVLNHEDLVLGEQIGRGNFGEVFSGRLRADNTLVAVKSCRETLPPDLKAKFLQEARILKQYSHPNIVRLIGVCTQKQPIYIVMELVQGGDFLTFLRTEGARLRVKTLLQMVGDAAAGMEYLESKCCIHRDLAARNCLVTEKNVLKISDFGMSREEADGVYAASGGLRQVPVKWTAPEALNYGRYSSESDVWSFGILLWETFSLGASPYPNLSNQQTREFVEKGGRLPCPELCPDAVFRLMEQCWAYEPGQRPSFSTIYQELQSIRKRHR
Assay [7] relates to Leucine-rich repeat serine/threonine-protein kinase 2 (Homo sapiens), Q5S007 [G2019S]. Briefly: Inhibition of LRRK2 G2019S mutant (unknown origin) at 0.19 uM relative to control.
Sequence of Leucine-rich repeat serine/threonine-protein kinase 2 (Homo sapiens), Q5S007 [G2019S] (Q5S007 whole entry G2019S): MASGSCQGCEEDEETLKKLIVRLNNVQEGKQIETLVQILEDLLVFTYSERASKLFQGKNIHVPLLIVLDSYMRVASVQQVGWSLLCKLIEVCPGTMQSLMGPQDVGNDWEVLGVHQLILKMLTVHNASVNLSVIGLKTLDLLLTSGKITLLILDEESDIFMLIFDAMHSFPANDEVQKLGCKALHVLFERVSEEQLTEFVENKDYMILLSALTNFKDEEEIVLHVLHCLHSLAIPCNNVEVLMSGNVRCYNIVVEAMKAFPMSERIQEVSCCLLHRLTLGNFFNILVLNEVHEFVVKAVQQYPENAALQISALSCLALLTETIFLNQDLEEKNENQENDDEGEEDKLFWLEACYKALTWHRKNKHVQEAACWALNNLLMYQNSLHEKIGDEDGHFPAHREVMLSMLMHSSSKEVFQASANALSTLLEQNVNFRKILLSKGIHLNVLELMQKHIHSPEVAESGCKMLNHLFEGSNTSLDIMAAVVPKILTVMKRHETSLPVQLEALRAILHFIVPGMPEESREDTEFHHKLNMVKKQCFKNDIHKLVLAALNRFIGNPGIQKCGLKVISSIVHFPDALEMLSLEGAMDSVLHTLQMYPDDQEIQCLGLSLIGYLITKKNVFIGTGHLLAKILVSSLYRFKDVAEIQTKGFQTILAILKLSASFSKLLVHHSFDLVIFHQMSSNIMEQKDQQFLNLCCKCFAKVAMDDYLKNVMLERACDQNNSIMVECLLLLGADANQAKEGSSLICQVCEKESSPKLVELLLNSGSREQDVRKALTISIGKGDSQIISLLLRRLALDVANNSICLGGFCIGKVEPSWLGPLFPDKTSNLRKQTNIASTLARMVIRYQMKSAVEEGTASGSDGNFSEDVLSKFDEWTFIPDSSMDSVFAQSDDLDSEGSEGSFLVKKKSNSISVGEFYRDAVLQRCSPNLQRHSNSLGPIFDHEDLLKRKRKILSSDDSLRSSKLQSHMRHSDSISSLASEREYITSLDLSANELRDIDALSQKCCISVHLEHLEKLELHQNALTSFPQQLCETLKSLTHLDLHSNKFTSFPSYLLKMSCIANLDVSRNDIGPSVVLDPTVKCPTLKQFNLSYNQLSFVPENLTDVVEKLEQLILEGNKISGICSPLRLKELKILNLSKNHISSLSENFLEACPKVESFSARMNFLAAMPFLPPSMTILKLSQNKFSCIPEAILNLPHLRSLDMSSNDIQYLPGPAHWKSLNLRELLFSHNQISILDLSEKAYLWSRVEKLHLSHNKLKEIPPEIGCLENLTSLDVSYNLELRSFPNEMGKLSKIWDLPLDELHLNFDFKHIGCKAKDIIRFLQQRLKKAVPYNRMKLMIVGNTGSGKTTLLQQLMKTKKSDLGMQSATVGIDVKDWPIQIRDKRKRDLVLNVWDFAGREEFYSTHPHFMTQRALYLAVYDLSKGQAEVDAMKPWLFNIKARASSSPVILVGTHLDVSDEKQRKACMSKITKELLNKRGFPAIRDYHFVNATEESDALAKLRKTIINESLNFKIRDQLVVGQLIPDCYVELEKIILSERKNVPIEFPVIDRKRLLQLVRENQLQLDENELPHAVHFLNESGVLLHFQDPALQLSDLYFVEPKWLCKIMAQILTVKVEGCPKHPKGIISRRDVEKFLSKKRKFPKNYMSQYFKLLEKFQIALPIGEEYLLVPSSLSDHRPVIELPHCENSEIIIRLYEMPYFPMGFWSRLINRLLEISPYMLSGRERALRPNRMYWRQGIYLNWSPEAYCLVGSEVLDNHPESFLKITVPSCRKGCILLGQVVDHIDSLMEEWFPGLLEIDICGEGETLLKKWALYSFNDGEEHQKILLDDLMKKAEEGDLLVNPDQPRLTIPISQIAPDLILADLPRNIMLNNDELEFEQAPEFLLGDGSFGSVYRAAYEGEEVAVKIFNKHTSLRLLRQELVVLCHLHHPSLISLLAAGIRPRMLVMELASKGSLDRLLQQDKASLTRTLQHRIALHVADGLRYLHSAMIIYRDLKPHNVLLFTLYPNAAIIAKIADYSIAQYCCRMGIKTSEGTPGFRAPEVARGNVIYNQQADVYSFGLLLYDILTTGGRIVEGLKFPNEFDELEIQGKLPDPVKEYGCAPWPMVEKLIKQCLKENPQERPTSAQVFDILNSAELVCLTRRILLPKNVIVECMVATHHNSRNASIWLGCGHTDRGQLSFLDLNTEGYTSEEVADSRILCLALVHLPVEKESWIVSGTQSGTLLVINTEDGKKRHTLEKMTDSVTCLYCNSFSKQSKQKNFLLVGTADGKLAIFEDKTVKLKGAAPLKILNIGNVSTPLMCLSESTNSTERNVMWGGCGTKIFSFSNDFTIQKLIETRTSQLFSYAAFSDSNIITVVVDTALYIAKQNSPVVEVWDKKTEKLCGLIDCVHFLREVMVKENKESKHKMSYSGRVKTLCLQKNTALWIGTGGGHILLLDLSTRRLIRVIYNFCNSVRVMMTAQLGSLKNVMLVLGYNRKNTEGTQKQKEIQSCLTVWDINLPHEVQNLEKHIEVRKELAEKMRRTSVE
Assay [8] concerns the target Ribosomal protein S6 kinase (Homo sapiens) (UniProt P51812+Q9UBS0+O75676+Q15349+O75582+P23443+Q9UK32+Q15418). The assay is described as follows: Inhibition of p70S6K (unknown origin) at 0.164 uM relative to control. It counts as protein assay.
Assay [9] deals with Vascular endothelial growth factor receptor 2 (Homo sapiens) (UniProt P35968). Briefly: Inhibition of KDR (unknown origin) at 0.164 uM relative to control.
Sequence of Vascular endothelial growth factor receptor 2 (Homo sapiens) (P35968 whole entry): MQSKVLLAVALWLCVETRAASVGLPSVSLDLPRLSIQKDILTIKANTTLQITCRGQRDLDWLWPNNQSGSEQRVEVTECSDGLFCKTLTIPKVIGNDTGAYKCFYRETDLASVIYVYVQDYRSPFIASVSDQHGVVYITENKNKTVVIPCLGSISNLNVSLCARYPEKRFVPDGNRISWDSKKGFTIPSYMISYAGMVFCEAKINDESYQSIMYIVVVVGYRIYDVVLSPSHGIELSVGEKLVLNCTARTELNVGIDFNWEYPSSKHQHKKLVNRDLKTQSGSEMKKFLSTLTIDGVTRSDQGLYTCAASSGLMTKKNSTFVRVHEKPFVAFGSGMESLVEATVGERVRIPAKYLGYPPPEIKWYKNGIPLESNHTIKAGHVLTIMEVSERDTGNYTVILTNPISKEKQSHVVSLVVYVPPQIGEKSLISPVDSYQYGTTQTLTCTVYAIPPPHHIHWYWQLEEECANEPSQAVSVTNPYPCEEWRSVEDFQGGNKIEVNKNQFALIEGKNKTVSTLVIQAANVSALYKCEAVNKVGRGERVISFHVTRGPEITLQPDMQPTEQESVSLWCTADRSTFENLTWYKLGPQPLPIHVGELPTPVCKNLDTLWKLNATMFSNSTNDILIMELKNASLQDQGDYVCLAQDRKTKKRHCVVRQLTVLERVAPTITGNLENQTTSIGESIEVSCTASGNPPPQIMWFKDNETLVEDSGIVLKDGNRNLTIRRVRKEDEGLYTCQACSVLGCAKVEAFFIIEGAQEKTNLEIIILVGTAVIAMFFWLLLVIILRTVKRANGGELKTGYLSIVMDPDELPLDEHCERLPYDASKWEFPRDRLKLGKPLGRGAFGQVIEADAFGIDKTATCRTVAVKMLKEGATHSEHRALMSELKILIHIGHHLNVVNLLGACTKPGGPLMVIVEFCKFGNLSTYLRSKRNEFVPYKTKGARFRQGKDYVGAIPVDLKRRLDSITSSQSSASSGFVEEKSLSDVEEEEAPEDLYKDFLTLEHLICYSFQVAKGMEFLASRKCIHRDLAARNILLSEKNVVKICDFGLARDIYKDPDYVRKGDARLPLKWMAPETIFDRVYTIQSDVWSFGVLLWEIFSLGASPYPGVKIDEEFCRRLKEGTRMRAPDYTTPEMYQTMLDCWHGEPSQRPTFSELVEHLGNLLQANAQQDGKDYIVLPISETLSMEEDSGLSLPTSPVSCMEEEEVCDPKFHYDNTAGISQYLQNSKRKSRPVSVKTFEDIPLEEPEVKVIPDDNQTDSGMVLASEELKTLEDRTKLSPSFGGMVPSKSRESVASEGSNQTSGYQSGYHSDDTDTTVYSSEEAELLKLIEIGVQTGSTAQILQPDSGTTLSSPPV
Assay [10] addresses Fibroblast growth factor receptor 2 (Homo sapiens) (UniProt P21802). Briefly: Inhibition of FGFR2 (unknown origin) at 0.164 uM relative to control.
In assay [11] the target is Serine/threonine-protein kinase BRSK1 (Homo sapiens) (UniProt Q8TDC3). The assay is described as follows: Inhibition of BRSK1 (unknown origin) at 0.164 uM relative to control.
The target in assay [12] is Vascular endothelial growth factor receptor 1 (Homo sapiens) (UniProt P17948). Briefly: Inhibition of FLT1 (unknown origin) at 0.164 uM relative to control.
Assay [13] concerns the target Serine/threonine-protein kinase PAK 4 (Homo sapiens) (UniProt O96013). Briefly: Inhibition of PAK4 (unknown origin) at 0.164 uM relative to control.
In assay [14] the target is Ephrin type-B receptor 2 (Homo sapiens) (UniProt P29323). Briefly: Inhibition of EPHB2 (unknown origin) at 0.164 uM relative to control.
Assay [15] deals with Cyclin-dependent kinase 1/cyclin B1 (Homo sapiens) (UniProt P06493+P14635). The assay is described as follows: Inhibition of CDK1/Cyclin B1 (unknown origin) at 0.164 uM relative to control. It counts as protein-complex assay.
The target in assay [16] is Proto-oncogene tyrosine-protein kinase receptor Ret (Homo sapiens) (UniProt P07949). The assay is described as follows: Inhibition of RET (unknown origin) at 0.164 uM relative to control.
For assay [17], the system named is Fibroblast growth factor receptor 2 (Homo sapiens), P21802 [N549H]. Briefly: Inhibition of FGFR2 N549H mutant (unknown origin) at 0.164 uM.
Assay [18] deals with Leukocyte tyrosine kinase receptor (Homo sapiens) (UniProt P29376). Briefly: Inhibition of LTK (unknown origin) at 0.164 uM relative to control.
Assay [19] deals with Epidermal growth factor receptor (Homo sapiens), P00533 [T790M]. The assay is described as follows: Inhibition of EGFR T790M mutant (unknown origin) at 0.164 uM relative to control.
Assay [20] deals with Tyrosine-protein kinase ITK/TSK (Homo sapiens) (UniProt Q08881). The assay is described as follows: Inhibition of ITK (unknown origin) at 0.164 uM relative to control.
Assay [21] concerns the target T1, Serine/threonine-protein kinase D1 (Homo sapiens) (UniProt Q15139).
T1 sequence (whole entry): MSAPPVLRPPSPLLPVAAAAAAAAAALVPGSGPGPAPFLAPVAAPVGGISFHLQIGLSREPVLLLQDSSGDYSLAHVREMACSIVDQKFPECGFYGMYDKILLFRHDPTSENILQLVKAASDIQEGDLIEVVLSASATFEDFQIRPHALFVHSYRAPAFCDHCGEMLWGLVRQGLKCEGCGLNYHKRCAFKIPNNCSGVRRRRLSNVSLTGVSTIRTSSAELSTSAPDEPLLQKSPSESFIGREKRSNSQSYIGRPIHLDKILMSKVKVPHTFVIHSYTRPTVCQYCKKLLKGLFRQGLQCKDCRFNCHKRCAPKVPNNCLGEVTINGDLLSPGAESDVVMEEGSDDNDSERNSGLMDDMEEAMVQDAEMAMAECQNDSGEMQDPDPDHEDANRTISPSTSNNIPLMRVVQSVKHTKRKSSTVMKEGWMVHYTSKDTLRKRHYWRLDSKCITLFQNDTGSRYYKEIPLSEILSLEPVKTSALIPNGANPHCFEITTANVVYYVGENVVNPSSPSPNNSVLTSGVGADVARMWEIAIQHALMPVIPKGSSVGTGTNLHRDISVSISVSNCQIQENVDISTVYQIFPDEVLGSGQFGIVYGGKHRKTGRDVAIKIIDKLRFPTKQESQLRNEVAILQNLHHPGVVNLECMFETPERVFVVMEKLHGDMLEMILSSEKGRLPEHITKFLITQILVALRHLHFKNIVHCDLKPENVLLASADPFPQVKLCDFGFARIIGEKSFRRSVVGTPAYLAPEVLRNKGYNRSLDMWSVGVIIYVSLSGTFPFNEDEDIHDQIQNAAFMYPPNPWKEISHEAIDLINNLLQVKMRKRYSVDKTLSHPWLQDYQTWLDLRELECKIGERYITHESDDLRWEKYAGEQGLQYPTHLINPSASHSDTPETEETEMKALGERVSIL
The assay is described as follows: Inhibition of PKD1 (unknown origin) at 0.45 uM relative to control.

For assay [22], the target named is Tyrosine-protein kinase Fes/Fps (Homo sapiens) (UniProt P07332). Briefly: Inhibition of FES (unknown origin) at 0.45 uM relative to control.
Assay [23] deals with T2, Testis-specific serine/threonine-protein kinase 1 (Homo sapiens) (UniProt Q9BXA7).
T2 sequence (whole entry): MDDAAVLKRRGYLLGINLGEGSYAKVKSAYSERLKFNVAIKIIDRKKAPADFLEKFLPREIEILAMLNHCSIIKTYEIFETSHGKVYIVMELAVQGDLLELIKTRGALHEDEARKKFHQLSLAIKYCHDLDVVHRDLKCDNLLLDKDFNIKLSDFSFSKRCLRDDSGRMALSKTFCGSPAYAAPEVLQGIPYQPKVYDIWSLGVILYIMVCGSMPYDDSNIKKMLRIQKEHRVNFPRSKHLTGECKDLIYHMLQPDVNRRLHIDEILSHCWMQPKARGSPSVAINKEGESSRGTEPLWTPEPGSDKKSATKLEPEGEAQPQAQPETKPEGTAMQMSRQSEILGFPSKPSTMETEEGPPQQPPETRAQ
Briefly: Inhibition of TSSK1 (unknown origin) at 0.45 uM relative to control.

Sequence of Cyclin-dependent kinase 3 (Homo sapiens) (Q00526 whole entry, looked up): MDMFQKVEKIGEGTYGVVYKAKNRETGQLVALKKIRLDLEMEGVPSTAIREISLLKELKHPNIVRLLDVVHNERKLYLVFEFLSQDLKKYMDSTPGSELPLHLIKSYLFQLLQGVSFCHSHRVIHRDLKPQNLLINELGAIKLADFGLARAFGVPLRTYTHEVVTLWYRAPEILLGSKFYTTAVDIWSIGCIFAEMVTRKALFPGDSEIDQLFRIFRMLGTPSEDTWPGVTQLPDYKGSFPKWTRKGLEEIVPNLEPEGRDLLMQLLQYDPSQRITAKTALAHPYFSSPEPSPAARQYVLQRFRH

Regarding `Cc1[nH]nc(C2CC2)c1-c1ccc2c(-c3ccc(N4CCN(C)CC4)nc3)n[nH]c2c1`, the inhibition in [1] is 1.7%; in assay [2], 93.7%; in assay [3], 51%; in assay [4], 4.3%; in assay [5], 0.3%; in assay [6], -5%. The inhibition in assay [7] was 18%.

Take `COC(=O)Nc1cc(-c2c(C3CC3)n[nH]c2C)cc2[nH]ncc12`: the inhibition in assay [8] is 14.7%; in [9], 11.7%; in assay [10], -5.3%; in assay [11], -1%; in assay [12], 1.3%; in [13], 5.7%. Besides, the inhibition is -1% in [14]; -0.3% in assay [15]; 7.3% in assay [16]; -3.3% in assay [17]; -2.7% in assay [18]; 1.3% in assay [19]. In addition, the inhibition in assay [20] was determined as 6%.

In the case of `Cc1n[nH]c(C)c1-c1ccc2c(NC(=O)c3ccc(N4CCN(C)CC4)cc3)n[nH]c2c1`, the values for the inhibition in assay [21], in [22] and in [23] were 1.3%, -3.3% and -1%, respectively.
